Patent US8754226B2, “Piperidinyl-substituted lactams as GPR119 modulators” (Array BioPharma Inc., priority 2010, dated 2014)
Structures can show the parent of a compound that is named as a salt.

Tested on: modified version of the GPR119 receptor (94% identity to human receptor)
Test: cAMP production assay (LANCE cAMP kit, TR-FRET) in HEK-293 cells
Assay type: cell-based
Settings: for cAMP production in HEK-293 cells: HEK-293 cells stably expressing modified GPR119, test compounds 0.2 nM to 10 μM, one-hour incubation at ambient temperature; for Fold over baseline: increase in cAMP relative to basal levels, agonist activity if 1.5-fold or greater
Experimental: The assay utilized HEK-293 cells that stably express a modified version of the GPR119 receptor (94% identity to human receptor), under the control of a CMV promoter containing a tet-on element for tetracycline-inducible expression. GPR119 agonist-induced cyclic AMP (cAMP) production was measured in this cell line using the LANCE cAMP kit (Perkin Elmer, Waltham, Mass.). To generate a working stock of cells for the assay, cells were treated overnight with 1 μg/mL doxycycline at 37° C. in the presence of 5% CO2 to induce receptor expression. Cells were then harvested by enzymatic dissociation with 0.05% trypsin, resuspended in freezing medium (DMEM growth medium with 10% each of fetal bovine serum and DMSO), aliquoted and frozen at −80° C. On the day of the assay, frozen cells were thawed, washed 1× in PBS and resuspended in Hank's buffered salt solution (HBSS) containing 5 mM HEPES, 0.1% BSA and Alexa Fluor 647-conjugated anti-cAMP antibody (diluted 1:100). The cell suspension was then transferred to a Proxiplate Plus white 384-well assay plate (Perkin-Elmer) at 2000 cells/well. Test compounds at final concentrations ranging from 0.2 nM to 10 μM were added to the assay plate, followed by a one-hour incubation at ambient temperature (volume=10 μL/well). DMSO concentration was held constant at 0.5%. After incubation with test compounds, 10 μL of a detergent buffer containing a biotinylated cAMP/Europium-conjugated streptavidin complex (Europium-labeled cAMP tracer) were added to each well on the assay plate, followed by a 2-hour incubation at ambient temperature. During this incubation cAMP released from lysed cells competes with the Europium-labeled cAMP tracer for binding to the Alexa Fluor 647-conjugated antibody. […] Cellular cAMP levels were then determined by interpolation of raw signal data using a cAMP standard curve. Compounds were determined to have agonist activity if they stimulated a 1.5-fold or greater increase in cAMP relative to basal levels.

CS(=O)(=O)c1ccc(O[C@H]2CCN(C3CCN(c4ncc(C(F)(F)F)cc4F)CC3)C2=O)c(F)c1 [Example 138, (S)-3-(2-fluoro-4-(methyl-sulfonyl)phenoxy)-1-(1-(3-fluoro-5-(trifluoro-methyl)pyridin-2-yl)piperidin-4-yl) pyrrolidin-2-one]
cAMP production in HEK-293 cells: 38.6 nmol
Fold over baseline: 6.7

CS(=O)(=O)c1ccc(N[C@H]2CCN(C3CCN(c4cnc(C(F)(F)F)cn4)CC3)C2=O)c(F)c1 [Example 13, (S)-3-(2-fluoro-4-(methylsulfonyl)phenylamino)-1-(1-(5-(trifluoromethyl)pyrazin-2-yl)piperidin-4-yl)pyrrolidin-2-one]
cAMP production in HEK-293 cells: 24.8 nmol
Fold over baseline: 4.4

CS(=O)(=O)c1cc(F)c(N[C@H]2CCCN(C3CCN(c4cnc(Cl)cn4)CC3)C2=O)c(F)c1 [Example 65, (S)-1′-(5-chloropyrazin-2-yl)-3-(2,6-difluoro-4-(methylsulfonyl)phenylamino)-[1,4′-bipiperidin]-2-one]
cAMP production in HEK-293 cells: 21.0 nmol
Fold over baseline: 3.4

Cc1cnc(N2CCC(N3CC[C@H](Nc4ccc(S(C)(=O)=O)cc4F)C3=O)CC2)c(C#N)n1 [Example 134, (S)-3-(4-(3-(2-fluoro-4-(methylsulfonyl)phenyl-amino)-2-oxopyrrolidin-1-yl)piperidin-1-yl)-6-methylpyrazine-2-carbonitrile]
cAMP production in HEK-293 cells: 35.7 nmol
Fold over baseline: 2.7

CCCc1cnc(N2CCC(N3CCC[C@H](Nc4ccc(S(C)(=O)=O)cc4F)C3=O)CC2)nc1 [Example 42, (S)-3-(2-fluoro-4-(methylsulfonyl)phenylamino)-1′-(5-propylpyrimidin-2-yl)-[1,4′-bipiperidin]-2-one]
cAMP production in HEK-293 cells: 5.7 nmol
Fold over baseline: 2.1

CCc1cnc(N2CCC(N3CC[C@H](Oc4cc(C)c(S(C)(=O)=O)cc4F)C3=O)CC2)nc1 [Example 96, (S)-1-(1-(5-ethylpyrimidin-2-yl)piperidin-4-yl)-3-(2-fluoro-5-methyl-4-(methylsulfonyl)phenoxy)pyrrolidin-2-one]
cAMP production in HEK-293 cells: 31.7 nmol
Fold over baseline: 3.5

CS(=O)(=O)c1cc(F)c(O[C@H]2CCN(C3CCN(c4ncc(-c5ncccn5)cn4)CC3)C2=O)cc1F [Example 95, (S)-1-(1-(2,5′-bipyrimidin-2′-yl)piperidin-4-yl)-3-(2,5-difluoro-4-(methylsulfonyl)phenoxy)pyrrolidin-2-one]
cAMP production in HEK-293 cells: 9.0 nmol
Fold over baseline: 2.3

CS(=O)(=O)c1cc(F)c(O[C@H]2CCN(C3CCN(c4ncc(C(F)(F)F)cc4F)CC3)C2=O)cc1F [Example 166, (S)-3-(2,5-difluoro-4-(methylsulfonyl)phenoxy)-1-(1-(3-fluoro-5-(trifluoromethyl)pyridin-2-yl)piperidin-4-yl)pyrrolidin-2-one]
cAMP production in HEK-293 cells: 15.3 nmol
Fold over baseline: 3.6

CS(=O)(=O)c1ccc(O[C@H]2CCN(C3CCN(c4ncc(C(F)(F)F)cc4F)CC3)C2=O)cn1 [Example 142, (S)-1-(1-(3-fluoro-5-(trifluoromethyl)pyridin-2-yl)piperidin-4-yl)-3-(6-(methylsulfonyl)pyridin-3-yloxy) pyrrolidin-2-one]
cAMP production in HEK-293 cells: 21.7 nmol
Fold over baseline: 8.3

CS(=O)(=O)c1cc(F)c(O[C@H]2CCCN(C3CCN(c4cnc(Cl)cn4)CC3)C2=O)cc1F [Example 164, (S)-1′-(5-chloropyrazin-2-yl)-3-(2,5-difluoro-4-(methylsulfonyl)phenoxy)-[1,4′-bipiperidin]-2-one]
cAMP production in HEK-293 cells: 21.6 nmol
Fold over baseline: 4.3

CS(=O)(=O)c1ccc(O[C@H]2CCN(C3CCN(c4ncc(Cl)cc4F)CC3)C2=O)c(F)c1 [Example 139, (S)-1-(1-(5-chloro-3-fluoropyridin-2-yl)piperidin-4-yl)-3-(2-fluoro-4-(methylsulfonyl)phenoxy) pyrrolidin-2-one]
cAMP production in HEK-293 cells: 26.6 nmol
Fold over baseline: 5.0

CCCCCCCCCCc1cnc(N2CCC(N3CCC[C@H](Nc4cc(F)c(S(C)(=O)=O)cc4F)C3=O)CC2)nc1 [Example 46, (S)-1′-(5-decylpyrimidin-2-yl)-3-(2,5-difluoro-4-(methylsulfonyl)phenylamino)-[1,4′-bipiperidin]-2-one]
cAMP production in HEK-293 cells: 10.7 nmol
Fold over baseline: 2.2

CCc1cnc(N2CCC(N3CC[C@H](Nc4ccc(S(C)(=O)=O)cc4F)C3=O)CC2)cn1 [Example 89, (S)-1-(1-(5-ethylpyrazin-2-yl)piperidin-4-yl)-3-(2-fluoro-4-(methylsulfonyl)phenyl-amino)pyrrolidin-2-one trifluoroactetate]
cAMP production in HEK-293 cells: 23.1 nmol
Fold over baseline: 4.8

CCc1cnc(N2CCC(N3CCC[C@H](N(C)c4cc(F)c(S(C)(=O)=O)cc4F)C3=O)CC2)nc1 [Example 78, (S)-3-((2,5-difluoro-4-(methylsulfonyl)phenyl)(methyl)amino)-1′-(5-ethylpyrimidin-2-yl)-[1,4′-bipiperidin]-2-one]
cAMP production in HEK-293 cells: 13.6 nmol
Fold over baseline: 3.4

CS(=O)(=O)c1cc(F)c(O[C@H]2CCN(C3CCN(c4ncc(-c5ccccn5)cn4)CC3)C2=O)cc1F [Example 94, (S)-3-(2,5-difluoro-4-(methylsulfonyl)phenoxy)-1-(1-(5-(pyridin-2-yl)pyrimidin-2-yl)piperidin-4-yl)pyrrolidin-2-one]
cAMP production in HEK-293 cells: 6.9 nmol
Fold over baseline: 2.0

CS(=O)(=O)c1cc(F)c(O[C@H]2CCN(C3CCN(c4ncc(-c5ccccc5)cn4)CC3)C2=O)cc1F [Example 92, S-3-(2,5-difluoro-4-(methylsulfonyl)phenoxy)-1-(1-(5-phenylpyrimidin-2-yl)piperidin-4-yl)pyrrolidin-2-one]
cAMP production in HEK-293 cells: 16.6 nmol
Fold over baseline: 3.0

CCc1ccc(N2CCC(N3CC[C@@H](Nc4ccc(S(C)(=O)=O)cc4F)C3=O)CC2)nc1 [Example 27B, (R)-1-(1-(5-ethylpyridin-2-yl)piperidin-4-yl)-3-(2-fluoro-4-(methylsulfonyl)phenylamino)pyrrolidin-2-one]
cAMP production in HEK-293 cells: 7.5 nmol
Fold over baseline: 2.2

CS(=O)(=O)c1ccc(N[C@H]2CCN(C3CCN(c4ncc(C(F)(F)F)cc4Cl)CC3)C2=O)c(F)c1 [Example 107, (S)-1-(1-(3-chloro-5-(trifluoromethyl)pyridin-2-yl)piperidin-4-yl)-3-(2-fluoro-4-(methylsulfonyl)phenylamino)pyrrolidin-2-one]
cAMP production in HEK-293 cells: 20.9 nmol
Fold over baseline: 3.2

CCc1cnc(N2CCC(N3CC[C@H](N(C)c4cc(F)c(S(C)(=O)=O)cc4F)C3=O)CC2)nc1 [Example 37, (S)-3-((2,5-difluoro-4-(methylsulfonyl)phenyl)(methyl)amino)-1-(1-(5-ethylpyrimidin-2-yl)piperidin-4-yl)pyrrolidin-2-one trifluoroacetate]
cAMP production in HEK-293 cells: 23.4 nmol
Fold over baseline: 3.4

CCS(=O)(=O)c1ccc(N[C@H]2CCN(C3CCN(c4cnc(Cl)cn4)CC3)C2=O)cn1 [Example 128, (S)-1-(1-(5-chloropyrazin-2-yl)piperidin-4-yl)-3-(6-(ethylsulfonyl)pyridin-3-ylamino)pyrrolidin-2-one]
cAMP production in HEK-293 cells: 16.6 nmol
Fold over baseline: 3.4

O=C(c1ccc(O[C@H]2CCN(C3CCN(c4ncc(Cl)cc4F)CC3)C2=O)c(F)c1)N1CC[C@@H](O)C1 [Example 155, (S)-1-(1-(5-chloro-3-fluoropyridin-2-yl)piperidin-4-yl)-3-(2-fluoro-4-((R)-3-hydroxypyrrolidine-1-carbonyl)phenoxy)pyrrolidin-2-one]
cAMP production in HEK-293 cells: 13.4 nmol
Fold over baseline: 2.5

O=C1C(Oc2ccc(-n3cnnn3)nc2)CCN1C1CCN(c2cnc(Cl)cn2)CC1 (stereo not drawn) [Example 67, 3-(6-(1H-tetrazol-1-yl)pyridin-3-yloxy)-1-(1-(5-chloropyrazin-2-yl)piperidin-4-yl)pyrrolidin-2-one]
cAMP production in HEK-293 cells: 15.6 nmol
Fold over baseline: 2.9

Cn1cc(-c2cnc(N3CCC(N4CC[C@H](Nc5ccc(S(C)(=O)=O)cc5F)C4=O)CC3)nc2)cn1 [Example 33, (S)-3-(2-fluoro-4-(methylsulfonyl)phenylamino)-1-(1-(5-(1-methyl-1H-pyrazol-4-yl)pyrimidin-2-yl)piperidin-4-yl)pyrrolidin-2-one]
cAMP production in HEK-293 cells: 15.9 nmol
Fold over baseline: 3.3

CS(=O)(=O)c1ccc(N[C@H]2CCCN(C3CCN(c4ncc(C(F)(F)F)cn4)CC3)C2=O)c(F)c1 [Example 41, (S)-3-(2-fluoro-4-(methyl-sulfonyl)phenylamino)-1′-(5-(trifluoromethyl)pyrimidin-2-yl)-1,4′-bipiperidin-2-one]
cAMP production in HEK-293 cells: 7.4 nmol
Fold over baseline: 1.7
